Reference: patent US20240383922A1, “KRAS Modulating Compounds” (Gilead Sciences, Inc., priority 2023, published 2024)

Columns and labels:
[1] = molecular target: GDP-loaded KRAS-G12C (Homo sapiens (Human), UniProt P01116, G12C); assay: KRAS (GDP) biochemical TR-FRET probe displacement assay, KRAS-G12C; format: binding; settings: 2 hours
Procedure: (§1) KRAS (GDP) Biochemical Assays:
(§2) Compounds were serially diluted (1:3) in DMSO. The LabCyte ECHO Acoustic dispenser was used to pre-spot the assay plates (384-well Non-Binding Surface plates, Corning, Catalog #3824) with 50 nL of compound. 5 μL of 2× enzyme concentration was added to the pre-spotted plates and incubated for 30 minutes before adding 5 μL of 2× concentration of Eu-streptavidin and Cy-5 labelled probe (10 μL final reaction volume). The plates were incubated at room temperature for 2 hours before measuring TR-FRET ratio (665 nm/615 nm) on the Envision multimode plate reader. The ratios were normalized to a positive (saturating concentration of known inhibitor) and negative (DMSO) control and plotted against the log of compound concentration.

[2] = tested on: cellular pERK in ASPC-1 (KRAS G12D) cell-line; assay: Cell based pERK assay (HTRF), ASPC-1; settings: Homo sapiens, ASPC1; ASPC-1 (KRAS G12D) cells, 2 hours incubation
How it was run: (§3)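 Read-out: HTRF phospho-ERK1/2 ratio (665/615 nm) after overnight lysis at RT. This followed a 2 h, 37 °C compound exposure of cells plated the day before. Signals were normalized to DMSO and a saturating known inhibitor. IC50 came from a sigmoidal dose-response fit.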

[3] = molecular target: GDP-loaded wild-type KRAS (WT) (Homo sapiens (Human), UniProt P01116); assay: KRAS (GDP) biochemical TR-FRET probe displacement assay, WT KRAS; format: binding; settings: 2 hours
Chain of GDP-loaded wild-type KRAS (WT) (P01116-2 other isoform, or with tags, fused parts or gaps): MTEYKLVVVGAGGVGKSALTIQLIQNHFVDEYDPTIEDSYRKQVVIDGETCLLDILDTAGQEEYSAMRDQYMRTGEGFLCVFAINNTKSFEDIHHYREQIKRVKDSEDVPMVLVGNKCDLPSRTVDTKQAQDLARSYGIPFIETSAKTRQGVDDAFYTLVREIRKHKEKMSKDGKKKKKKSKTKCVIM
Procedure: as §1, §2

[4] = molecular target: GDP-loaded KRAS-G12D (Homo sapiens (Human), UniProt P01116, G12D); assay: KRAS (GDP) biochemical TR-FRET probe displacement assay, KRAS-G12D; format: binding; settings: 2 hours
Chain of GDP-loaded KRAS-G12D (P01116-2 other isoform, or with tags, fused parts or gaps G12D): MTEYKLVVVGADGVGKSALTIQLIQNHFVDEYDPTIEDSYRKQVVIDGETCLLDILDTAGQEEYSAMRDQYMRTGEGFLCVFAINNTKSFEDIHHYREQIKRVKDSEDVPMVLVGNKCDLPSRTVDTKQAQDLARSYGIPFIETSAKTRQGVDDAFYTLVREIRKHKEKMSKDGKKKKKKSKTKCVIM
Procedure: as §1, §2

[5] = tested on: cellular pERK in NCI-H441 (KRAS-G12V) cell-line; assay: Cell based pERK assay (HTRF), NCI-H441; settings: Homo sapiens; NCI-H441 (KRAS-G12V) cells, 2 hours incubation
How it was run: as §3

[6] = molecular target: GDP-loaded KRAS-G12V (Homo sapiens (Human), UniProt P01116, G12V); assay: KRAS (GDP) biochemical TR-FRET probe displacement assay, KRAS-G12V; format: binding; settings: 2 hours
Chain of GDP-loaded KRAS-G12V (P01116-2 other isoform, or with tags, fused parts or gaps G12V): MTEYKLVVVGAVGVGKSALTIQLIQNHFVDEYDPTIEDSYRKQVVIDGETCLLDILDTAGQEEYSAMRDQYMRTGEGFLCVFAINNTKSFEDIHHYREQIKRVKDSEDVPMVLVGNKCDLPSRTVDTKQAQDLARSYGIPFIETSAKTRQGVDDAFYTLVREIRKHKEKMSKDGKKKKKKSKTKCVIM
Procedure: as §1, §2

[7] = tested on: cellular pERK in MIA-PaCa-2 (KRAS-G12C) cell-line; assay: Cell based pERK assay (HTRF), MIA-PaCa-2; settings: Homo sapiens; MIA-PaCa-2 (KRAS-G12C) cells, 2 hours incubation; read-out: MIAPaCa2 pERK EC50
How it was run: as §3

[8] = tested on: cellular pERK in Kuramochi (WT KRAS) cell-line; assay: Cell based pERK assay (HTRF), Kuramochi; settings: Kuramochi (WT KRAS) cells, 2 hours incubation
How it was run: as §3

Chain of GDP-loaded KRAS-G12C (P01116-2 other isoform, or with tags, fused parts or gaps G12C): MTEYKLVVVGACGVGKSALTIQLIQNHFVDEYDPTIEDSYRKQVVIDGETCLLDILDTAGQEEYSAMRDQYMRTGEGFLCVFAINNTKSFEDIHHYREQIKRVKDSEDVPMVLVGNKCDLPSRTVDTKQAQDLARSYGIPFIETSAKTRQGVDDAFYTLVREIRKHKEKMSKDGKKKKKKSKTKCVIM

Compound | IC50 [1] [nM] | EC50 [2] [nM] | IC50 [3] [nM] | IC50 [4] [nM] | EC50 [5] [nM] | IC50 [6] [nM] | EC50 [7] [nM] | EC50 [8] [nM]
C#Cc1c(F)ccc2cc(N)cc(-c3nc4c5c(nc(OC[C@@]67CCCN6[C@H](COc6cc(C(F)(F)F)cnn6)CC7)nc5c3F)N3CCCOC[C@@H]3CC4)c12 [Example 7-5] | 0.55 | 21.2 | 1.8 | 1.76 | 3.48 | 0.65 | 1.34 | 1.4
C#Cc1c(F)ccc2cc(N)cc(-c3nc4c5c(nc(OC[C@@]67CCCN6[C@H](COc6nccnc6C(F)F)CC7)nc5c3F)N3CCCOC[C@@H]3CC4)c12 [Example 7-6] | 1.09 | 32.1 | 1.93 | 3.15 | 11.8 | 1.2 | 3.88 | 4.17
C#Cc1c(F)ccc2cc(N)cc(-c3c(F)c4c5c(nc(OC[C@@]67CCCN6C[C@H](F)C7)nc5c3F)N3CCCOC[C@@H]3CC4)c12 [Example 7-12] | 4.58 | 104 | 30 | 24.6 | 32.6 | 15.8 | 8.18 | 7.88
C#Cc1c(F)ccc2cc(O)cc(-c3nc4c5c(nc(OCC6(CN7CCCCC7)CC6)nc5c3F)N3CCCOC[C@@H]3CC4)c12 [Example 15-1, (S)-5-ethynyl-6-fluoro-4-(1-fluoro-12-((1-(piperidin-1-ylmethyl)cyclopropyl)methoxy)-4,5,5a,6,9,10-hexahydro-8H-7-oxa-3,10a,11,13-tetraazanaphtho[1,8-ab]heptalen-2-yl)naphthalen-2-ol] | 37.1 | 655 | 69.1 | 56.4 | 572 | 47.7 | 217 | 181
C#Cc1c(F)ccc2cccc(-c3nc4c5c(nc(OC[C@@]67CCCN6[C@H](COC(=O)N6CCCCC6)CC7)nc5c3F)N3CCCOC[C@@H]3CC4)c12 [Example 16-2] | 0.19 | 0.62 | 0.17 | 0.24 | 0.56 | 0.2 | 0.28 | 1.99
C#Cc1c(F)ccc2cc(O)cc(-c3nc4c5c(nc(OC[C@@]67CCCN6[C@H](COc6cc(C(F)(F)F)ncn6)CC7)nc5c3F)N3CCCOC[C@@H]3C=C4C)c12 [Example 18-1, 5-ethynyl-6-fluoro-4-((S)-1-fluoro-4-methyl-12-(((3S,7aS)-3-(((6-(trifluoromethyl)pyrimidin-4-yl)oxy)methyl)tetrahydro-1H-pyrrolizin-7a(5H)-yl)methoxy)-5a,6,9,10-tetrahydro-8H-7-oxa-3,10a,11,13-tetraazanaphtho[1,8-ab]heptalen-2-yl)naphthalen-2-ol] | 3.59 | 14 | 5.56 | 3.27 | 12.8 | 2.77 | 3.25 | 3.53
C#Cc1c(F)ccc2cc(O)cc(-c3nc4c5c(nc(OC[C@@]67CCCN6[C@H](COc6cc(C(F)(F)F)cnn6)CC7)nc5c3F)N3CCCOC[C@@H]3C=C4C)c12 [Example 18-2] | 0.49 | 1.39 | 0.36 | 0.65 | 1.05 | 0.42 | 0.82 | 3.63
C#Cc1c(F)ccc2cc(O)cc(-c3nc4c5c(nc(OC[C@@]67CCCN6[C@H](COC(C(F)(F)F)(C(F)(F)F)C(F)(F)F)CC7)nc5c3F)N3CCCOC[C@@H]3CC4)c12 [Example 22-4] | 1.83 | 2.31 | 1.2 | 1.65 | 1.97 | 1.59 | 0.86 | 3.16
C#Cc1c(F)ccc2cc(O)cc(-c3nc4c5c(nc(OCC67CCCN6[C@H](COC(C(F)(F)F)C(F)(F)F)CC7)nc5c3F)N3CCCOCC3CC4)c12 (stereo partly drawn) [Example 22-7] | 34.7 | 54.6 | 30.6 | 31 | 37.1 | 12.6 | 6.69 | 9.83
